Assay results: ChEMBL document CHEMBL1131842, “Synthesis and estrogen receptor binding affinity of a porphyrin-estradiol conjugate for targeted photodynamic therapy of cancer” (Bioorg Med Chem Lett, 1999)

Biological target: Estrogen receptor (Homo sapiens, UniProt Q92731+P03372)
Experiment: Displacement of [3H]estradiol from estrogen receptor-ligand binding domain
Assay type: protein assay

- EC50: 274 nM
SMILES: C[C@]12CC(CCOC(=O)CCCNC(=O)c3ccc(-c4c5ccc([nH]5)c(-c5ccccc5)c5nc(c(-c6ccccc6)c6nc(c(-c7ccccc7)c7ccc4[nH]7)C=C6)C=C5)cc3)[C@@H]3c4ccc(O)cc4CC[C@H]3[C@@H]1CCC2O (stereo partly specified)
